Laboratory results published in US12303491B2, “Econazole nitrate medical patch and methods of use thereof” (Temple University-Of The Commonwealth System of Higher …, priority 2017, dated 2025).
Converted amounts (≈) assume the structure as drawn.

Key:
[1] = cited from earlier work
Staphylococcus aureus = details: cited from earlier work
[2] = tested on: Staphylococcus epidermidis; details: cited from earlier work
Streptococcus pyogenes = details: cited from earlier work
Streptococcus bovis = details: cited from earlier work
Streptococcus faecalis = details: cited from earlier work
Streptococcus faecium = details: cited from earlier work
[3] = tested on: Corynebacterium diphtheria; details: cited from earlier work
Listeria monocytogenes = details: cited from earlier work
Bacillus subtilis = details: cited from earlier work
[4] = cited from earlier work; remark: listed apart in the source
plasma protein = details: cited from earlier work
[5] = Crystallization in patch films (visual observation); assay type: physicochemical
Experimental: The drug (EN) and the PEs, thiourea (TU) and propylene glycol (PG), were dissolved or uniformly dispersed in the pressure sensitive adhesive(s) (PSAs), and spread onto a release liner. The drug (EN) and the nail PE (TU) were weighed out in a glass bottle and dissolved in solvent (methanol) and vortexed for 1 min. Then PG was weighed and added as solubilizer for EN and plasticizer for the patch. The solution was vortexed with the methanol as solvent until a single phase was obtained. Afterwards, the hydrophobic plasticizers triethyl citrate and hydrophilic polymer polyvinylpyrrolidone were weighed and mixed with the solvents prior to addition of PG. Finally the polymer was weighed out into the glass bottle and vortexed for 5 min to form a homogenous mixture. The formulae for the patch include but are not limited to those in Table 3. The bottles were then placed on the bottle roller and mixed overnight at medium speed to complete the mixing and remove the air bubbles generated during vortexing the polymer. […]
The percentage of TU was maintained at a concentration off 1%. Three concentrations of EN (1% w/w, 2.5% w/w and 5% w/w) and three concentrations of PG (5% w/w, 10% w/w and 20% w/w) were evaluated. […] Then according to the EN and PG concentration determined from the DURO-TAK® 87-4098 films, fabricated patches using acrylate grades DURO-TAK® 87-2287, DURO-TAK® 87-4287 and DURO-TAK® 87-9301. […]

[6] = Drug release rate from acrylate patch; assay type: physicochemical
Experimental: The percentage of TU was maintained at a concentration off 1%. Three concentrations of EN (1% w/w, 2.5% w/w and 5% w/w) and three concentrations of PG (5% w/w, 10% w/w and 20% w/w) were evaluated. The acrylate films were first fabricated with DURO-TAK® 87-4098. The total weight of the mixture was 5 g. Methanol was the only solvent used for dissolving the components in the acrylates films. The purpose of this was to screen out what concentration of EN and PG could be added into the polymer to form an acceptable patch. Then according to the EN and PG concentration determined from the DURO-TAK® 87-4098 films, fabricated patches using acrylate grades DURO-TAK® 87-2287, DURO-TAK® 87-4287 and DURO-TAK® 87-9301.
Drug release from hydrophobic polymers is slow. The adhesives polymer used are hydrophobic polymers. To increase polymer chain mobility, the addition of a hydrophobic plasticizer was considered. Triacetin (TAC) and triethyl citrate (TEC) were the selected plasticizers. The adhesive polymer acrylate had been selected as the best polymer system. TAC or TEC was added into the acrylate polymer at three different levels. These were, 5%, 10% and 20% (based on the 5 g matrix weight).

[7] = In-vitro skin permeation, Franz diffusion cells; assay type: in vitro ADME, human
Excerpt: The patch was studied for the transdermal permeation of EN using human cadaver skin and Franz diffusion cells (FIG. 2A). Three films each with an area of 4 cm^2 square patch were cut from patch film. The skin was cut into 1.5 cm by 1.5 cm pieces, and mount on the Franz diffusion cells with orifice diameter of 9 mm (FIG. 2B). The release liner was removed from the films and the matrix surface was placed in contact with the skin. The area of 0.64 cm^2 of the skin was in contact with the receiving medium. The receiver compartment was sampled at 1, 2, 4, 8, 12 and 24 hr by withdrawing 0.5 mL of the receiving medium and replacing with equal volume of pH 7.4 PBS. At the end of 24 hr, epidermis and dermis were heat separated and extracted for EN content.

[8] = assay type: in vitro ADME, human
Experimental: The cadaver toenails were cut into 7 mm×7 mm (49 mm^2) pieces. The nail pieces were then hydrated at 100% RH overnight prior to start of experiment. The hydrated nail pieces were placed in the neoprene nail adapters (FIG. 2A) with orifice diameter of 5 mm. The receiver compartment was filled with pH 7.4 PBS (3 mL) containing 0.1% w/v gentamicin sulfate and the assembly was maintained at 32±1° C. throughout the duration of the experiment. Each sample was tested in triplicate. The patch in absence of thiourea was used as the control. The patches with diameter of 5 mm were cut. The release liner was removed and the drug matrix was placed in contact with the nail. The new patch was applied every 24 hrs for 14 days. Throughout the duration of the study, the Franz cells were dosed with a new patch daily. On the days 2, 4, 6, 8, 10, 12 and 14, 0.5 mL of the sample was withdrawn from the receiver compartment and replaced with equal volume of new receiving medium.

[9] = cited from earlier work; remark: listed apart in the source
dermatomycoses = details: topical, dermatological studies, treatment period 2 to 6 weeks; cited from earlier work
[10] = Drug saturation solubility study; details: PVP 1% and 5% solution compared to phosphoric buffer pH 7.4 and pH 5 (P<0.05)
[11] = Nail penetration study in PVP solution; details: 1% and 5% PVP group compared to phosphoric buffer pH 7.4 and pH 5 groups

Row | SMILES | aqueous solubility [1] | MIC (Staphylococcus aureus) | MIC [2] | MIC (Streptococcus pyogenes) | MIC (Streptococcus bovis) | MIC (Streptococcus faecalis) | MIC (Streptococcus faecium) | MIC [3] | MIC (Listeria monocytogenes) | MIC (Bacillus subtilis) | also measured
1 | Cc1cc(C2CCCCC2)n(O)c(=O)c1 [CPO, ciclopirox] | 1.4 mg/mL (≈ 6750 µM) | – | – | – | – | – | – | – | – | – | –
2 | Clc1ccc(COC(Cn2ccnc2)c2ccc(Cl)cc2Cl)cc1 (stereo not shown) [econazole] | – | 12.5 µg/mL (≈ 32.7 µM) | 12.5 µg/mL (≈ 32.7 µM) | 12.5 µg/mL (≈ 32.7 µM) | 6.25 µg/mL (≈ 16.4 µM) | 25 µg/mL (≈ 65.5 µM) | 25 µg/mL (≈ 65.5 µM) | 0.78 µg/mL (≈ 2.04 µM) | 1.56 µg/mL (≈ 4.09 µM) | 12.5 µg/mL (≈ 32.7 µM) | unchanged drug in urine ([4]; human, in vivo): No unchanged econazole is detected; dose recovered in urine and feces ([4]; vaginal cream, over 96 hours): less than 3%; plasma protein binding (plasma protein): greater than 98%
3 | Clc1ccc(COC(Cn2ccnc2)c2ccc(Cl)cc2Cl)c(Cl)c1 (stereo not shown) [miconazole base, miconazole] | – | 6.25 µg/mL (≈ 15 µM) | 6.25 µg/mL (≈ 15 µM) | 6.25 µg/mL (≈ 15 µM) | 3.12 µg/mL (≈ 7.5 µM) | 25 µg/mL (≈ 60.1 µM) | 25 µg/mL (≈ 60.1 µM) | 0.39 µg/mL (≈ 0.937 µM) | 1.56 µg/mL (≈ 3.75 µM) | 3.12 µg/mL (≈ 7.5 µM) | –
4 | Clc1ccc(COC(Cn2ccnc2)c2ccc(Cl)cc2Cl)cc1 (stereo not shown) [econazole nitrate, Econazole nitrate] | 1.5 micrograms/ml | – | – | – | – | – | – | – | – | – | crystallization in patch ([5]; acrylate PSA patch, drug load 5% w/w, no PG added): slight crystallization; crystallization in patch ([5]; acrylate patch screening, EN concentration raised to 5% w/w): crystallization occurred; drug release rate ([6]; acrylate patch in absence of PVP): 22.347 μg/cm^2/hour; drug release rate ([6]; acrylate patch with 1% PVP): 26.713 μg/cm^2/hour; drug release rate ([6]; acrylate patch with 5% PVP): 27.853 μg/cm^2/hour; drug amount in the receiver compartment ([7]; human cadaver skin, after 24 hours): no drug amount appeared; drug amount in the dermis ([7]; patch with thiourea vs without, 24 hr): no significant difference; drug amount in the epidermis ([7]; patch with thiourea, 24 hr): 5.63 ug/cm^2; drug amount in the epidermis ([7]; patch without thiourea, 24 hr): 1.73 ug/cm^2; drug amount in nail plate [8]: significantly increase; Water Solubility ([9]; at 19° C.): <0.1 g/100 mL at 19 °C; Log P [9]: 5.5; pKa [9]: 6.77; patients cured (dermatomycoses): about 90%; topically applied drug remaining on the skin surface ([4]; as a cream, patients): about 90%; saturation solubility [10]: significantly higher; amount penetrated into the nail plate [11]: significantly higher
